Test results from patent US20230210871A1 (THE LIMITED COMPANY RESEARCH AND DEVELOPMENT COMPANY …, priority 2017, published 2023).

Target: BSA glycation (Bos taurus, UniProt P02769)
Assay: Determination of antiglycation activity (BSA glycation by glucose, fluorescence of glycated BSA)
Assay type: biochemical, bovine
Details: for The average concentration of AGEs in the sample at a given concentration of the drug (Δ %, M ± m): BSA 1 mg/ml, glucose 500 mM, pH 7.4, 24 hours at 60° C
Protocol: The reaction mixture contains solutions of bovine serum albumin (1 mg/ml) and glucose (500 mM) in phosphate buffer (pH=7.4). To prevent bacterial growth, sodium azide in a final concentration of 0.02% is added to the buffer solution. All substances are dissolved in dimethyl sulfoxide (DMSO). […] All experimental samples are incubated for 24 hours at 60° C. At the end of the incubation period, specific fluorescence of glycated bovine serum albumin (BSA) is determined using an F-7000 spectrofluorimeter (Hitachi, Japan) at an excitation wavelength of 370 nm and an emission wavelength of 440 nm.
The calculation of the IC50 indicator is carried out by the method of regression analysis (Table 2).

Chain of BSA glycation (P02769 25-607): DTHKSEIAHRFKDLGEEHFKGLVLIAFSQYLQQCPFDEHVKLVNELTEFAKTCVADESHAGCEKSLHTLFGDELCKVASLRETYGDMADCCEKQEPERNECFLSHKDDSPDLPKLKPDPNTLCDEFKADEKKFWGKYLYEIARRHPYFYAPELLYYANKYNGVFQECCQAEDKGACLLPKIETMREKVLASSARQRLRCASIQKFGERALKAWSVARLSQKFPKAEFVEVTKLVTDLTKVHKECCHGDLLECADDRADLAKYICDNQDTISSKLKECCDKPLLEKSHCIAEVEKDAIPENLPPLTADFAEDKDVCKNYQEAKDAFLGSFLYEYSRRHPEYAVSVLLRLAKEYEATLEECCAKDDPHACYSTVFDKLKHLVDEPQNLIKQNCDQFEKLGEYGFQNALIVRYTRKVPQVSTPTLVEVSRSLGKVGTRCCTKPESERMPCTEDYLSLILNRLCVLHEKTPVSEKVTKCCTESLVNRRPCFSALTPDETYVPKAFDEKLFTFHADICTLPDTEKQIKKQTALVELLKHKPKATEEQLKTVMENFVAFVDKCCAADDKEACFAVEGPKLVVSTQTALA

IC50 (calculated by regression analysis): 765 µM
The average concentration of AGEs in the sample at a given concentration of the drug (Δ %, M ± m) (drug concentration 3*10^−4 mol): 50.25 ± 1.08 Δ %
The average concentration of AGEs in the sample at a given concentration of the drug (Δ %, M ± m) (drug concentration 3*10^−5 mol): 19.14 ± 2.24 Δ %
The average concentration of AGEs in the sample at a given concentration of the drug (Δ %, M ± m) (drug concentration 10^−3 mol): 58.08 ± 0.72 Δ %
The average concentration of AGEs in the sample at a given concentration of the drug (Δ %, M ± m) (drug concentration 10^−4 mol): 38.75 ± 1.52 Δ %
The average concentration of AGEs in the sample at a given concentration of the drug (Δ %, M ± m) (drug concentration 10^−5 mol): 3.53 ± 2.31 Δ %
Structure (SMILES): N=C(N)NN [Aminoguanidine, aminoguanidine]
